Data set [1] is described as follows: Preparation of solutions: clear or turbid phenomenon in solvent mixtures. It is filed as physicochemical.
Data set [2] has as its system freshly excised skin samples from Bama miniature pigs. Kind of data set: IVPT, Franz diffusion cells, Example 12. It is filed as in vitro ADME. The settings on record: penetration enhancer 7% in 1% solution, compared with the solution in the blank group. Here is the method: The penetrability of the API in the topical formulations was studied using freshly excised skin samples from Bama miniature pigs mounted in Franz diffusion cells. The fresh skin of Bama miniature pigs was depilated and then stored at −20° C. for later use. On the morning of the experiment, the skin was taken out and thawed, and after the transepidermal water loss value of the skin was detected to be less than 30, the skin was ready for use. The skin was cut to a size suitable for placing the pig skin samples between the donor and receiver compartments, and the pig skin samples were placed between the donor and receiver compartments of the Franz diffusion cell. About 60 mg of the sample was evenly applied to the pig skin. The opening of the Franz cell was 3.14 cm^2. 8.0 mL of a receiver solution was used. At 0.5 h, 2 h, […], and 24 h, 1.0 mL of the sample was removed and replaced with a new receiver solution. At 24 h, the skin was collected. The pig skin was treated, the epidermal and dermis layers were separated and extracted with a skin extract solution, and the residual drug amount, drug concentrations in the epidermal and dermis layers, and drug penetration concentration were detected by HPLC.

On to `COc1nsc(NC(=O)N2C[C@H]3CC(N(C)c4ncnc5[nH]ccc45)C[C@H]3C2)n1` (stereo partly drawn) [Active ingredient in free base form, (3aR,5s,6aS)—N-(3-methoxy-1,2,4-thiadiazol-5-yl)-5-(methyl(7H-pyrrolo[2,3-d]pyrimidin-4-yl)amino)hexahydrocyclopenta[c]pyrrole-2(1H)-carboxamide], for which, in data set [1] (concentration of dimethyl sulfoxide maintained at a high level, addition of a trace amount of water), the “preparation of a clear solution” value is “failed to prepare a clear solution above 1% concentration”. Also, in data set [1] (concentration of the active ingredient 1%, dimethyl sulfoxide replaced with ethanol, propylene glycol, polyethylene glycol 400, or dimethylformamide), the “state of the solutions” value is “suspensions”. In addition, the Phenomenon result in data set [1] (mass %: active ingredient 1, diethylene glycol monoethyl ether 40, dimethylformamide 45, propylene glycol 14) is on record as “Turbid”; in data set [1] (mass %: active ingredient 1, diethylene glycol monoethyl ether 40, ethanol 50, propylene glycol 9) it was “Turbid”; in data set [1] (mass %: active ingredient 1, diethylene glycol monoethyl ether 40, polyethylene glycol 400 59) it was “Turbid”; in data set [1] (mass %: active ingredient 1, diethylene glycol monoethyl ether 40, propylene glycol 59) it was “Turbid”; in data set [1] (mass %: active ingredient 1, dimethyl sulfoxide 10, diethylene glycol monoethyl ether 40, polyethylene glycol 400 49) it was “Turbid”; in data set [1] (mass %: active ingredient 1, dimethyl sulfoxide 35, diethylene glycol monoethyl ether 10, glycerol 20, propylene glycol 34), “Clear”. The Phenomenon result is listed as “Clear” in data set [1] (mass %: active ingredient 1, dimethyl sulfoxide 35, diethylene glycol monoethyl ether 30, glycerol 20, propylene glycol 14); “Turbid” in data set [1] (mass %: active ingredient 1, dimethyl sulfoxide 40, diethylene glycol monoethyl ether 15, glycerol 20, propylene glycol 14, water 10); “Turbid” in data set [1] (mass %: active ingredient 1, dimethyl sulfoxide 40, diethylene glycol monoethyl ether 15, propylene glycol 14, water 30); “Turbid” in data set [1] (mass %: active ingredient 1, dimethyl sulfoxide 40, diethylene glycol monoethyl ether 35, propylene glycol 14, water 10); “Clear” in data set [1] (mass %: active ingredient 1, dimethyl sulfoxide 40, diethylene glycol monoethyl ether 40, glycerol 5, propylene glycol 14); “Turbid” in data set [1] (mass %: active ingredient 1, dimethylformamide 45, propylene glycol 54). The Phenomenon result is “Turbid” in data set [1] (mass %: active ingredient 1, ethanol 45, propylene glycol 54); “Clear” in data set [1] (mass %: active ingredient 1.5, dimethyl sulfoxide 45, diethylene glycol monoethyl ether 40, propylene glycol 13.5); “Clear” in data set [1] (mass %: active ingredient 2, dimethyl sulfoxide 45, diethylene glycol monoethyl ether 40, propylene glycol 12).

In the case of propylene glycol monocaprylate, the skin penetration-enhancing effect entry in data set [2] was “certain skin penetration-enhancing effect”.

With `CC(O)C(=O)O` (stereo not shown) [lactic acid], the skin penetration-enhancing effect result in data set [2] was “relatively good skin penetration-enhancing effect”.

(Values after patent publication US20260232671A1, “PHARMACEUTICAL COMPOSITION FOR LOCAL ADMINISTRATION, PREPARATION METHOD THEREFOR, AND USE THEREOF” (priority 2023, published 2026).)
